For assay [1], the target named is T1, human 15-PGDH (Homo sapiens, UniProt P15428).
T1 construct: purchased R&D System 5660-DH
T1 sequence (P15428 1-266): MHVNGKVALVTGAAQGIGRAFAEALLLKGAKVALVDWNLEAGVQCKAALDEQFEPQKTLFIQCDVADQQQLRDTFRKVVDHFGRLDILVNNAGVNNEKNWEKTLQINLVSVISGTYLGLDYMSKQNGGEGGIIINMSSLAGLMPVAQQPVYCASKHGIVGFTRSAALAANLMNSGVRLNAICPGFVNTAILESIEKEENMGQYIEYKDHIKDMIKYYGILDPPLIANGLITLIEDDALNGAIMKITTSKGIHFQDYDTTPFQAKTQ
In words: Evaluation of 15-PGDH inhibitory activity (fluorescence enzyme assay, NAD+/PGE2). The conditions noted are these: human 15-PGDH enzyme, fluorescence Vmax. It counts as biochemical. As for the experimental part:
15-PGDH inhibition activity of Example compounds was measured as follows. 6.7 ng of human 15-PGDH (R&D System# 5660-DH) enzyme (10 µL) was added to a black 96 well plate, 60 µL of buffer (50 mM Tris-HCl, pH 7.5, 0.01% Tween 20) was added, and 10 µL of 200 µM β-Nicotinamide adenine dinucleotide sodium salt (Sigma, Cat# N0632-5G) was added. 10 µL of (10x) compound solution in DMSO was added and reacted for 10 minutes at room temperature.

The test system of assay [2] is A549 cells. In words: Measurement of PGE2-increasing activity in A549 cells (IL-1β stimulated, PGE2 quantified in supernatant). The conditions noted are these: Homo sapiens, 24 h; concentration of 1 µM of each compound; IL-1β treated A549 cells; read-out: Increased PGE2 production in A549 cells. The assay is classed as cell-based. How it is done:
A549 cells were prepared at a cell number of 1 x 10^5/mL in F12K medium containing 10% FBS (Fetal Bovine Serum), and 2 x 10^4/200 µL was added to each well of a 96-well cell culture plate, and then cultured in an incubator with 5% CO2 at 37 °C for 24 hours. After the culture was complete and all F12K medium was removed, all wells were washed once with 100 µL of PBS, and treated with 160 µL of serum-free F12K medium. Then, 20 µL of IL-1β diluted 10-fold to a concentration of 1 ng/mL in serum-free F12K medium was treated to wells to be treated with IL-1β, and 20 µL of serum-free F12K medium was treated to wells not treated with IL-1β. For the wells to be treated with the compound, 20 µL of the compound dissolved in 100% DMSO was diluted to a concentration 10 times of the desired compound concentration in serum-free F12K medium so that the final DMSO concentration treated to the cells was 0.1%, and for the wells not to be treated with the compound, 20 µL of DMSO diluted in serum-free F12K medium so that the final DMSO concentration treated to the cells was 0.1% was treated. In order to confirm the increase or decrease in the secretion amount of PGE2 in the supernatant collected after culturing for 24 hours in an incubator with 5% CO2 at 37 °C, PGE2 was quantified using the Prostaglandin E2 Parameter (SKGE004B).

The structures appear in SMILES notation. Where only a bound is given, the exact number is not on record here.

What is called IC50 is the concentration that inhibits the measured activity by half.

Take `O=C(c1cnn2c(-c3ccc(-c4nnn[nH]4)cc3)cccc12)N1CCCCC1` [Example 114, (7-(4-(1H-tetrazol-5-yl)phenyl)pyrazolo[1,5-a]pyridin-3-yl)(piperidin-1-yl)methanone]: the IC50 in assay [1] was not above 0.1 µM. Besides, the fold induction at 1 µM in assay [2] was more than 1.5. The corresponding values for `N#Cc1cccc(-c2cccc3c(C(=O)N4CCCCC4)cnn23)c1` [Example 6, 3-(3-(piperidine-1-carbonyl)pyrazolo[1,5-a]pyridin-7-yl)benzonitrile] are not above 0.1 µM and more than 1.5. The corresponding values for `O=C(c1cnn2c(-c3csc4ccccc34)cccc12)N1CCCCC1` [Example 124, (7-(benzo[b]thiophen-3-yl)pyrazolo[1,5-a]pyridin-3-yl)(piperidin-1-yl)methanone] are not above 0.1 µM and more than 1.5.

On to `O=C(c1cnn2c(-c3ccc(N4CC(F)C4)nc3)cccc12)N1CCCCC1` [Example 208, (7-(6-(3-fluoroazetidin-1-yl)pyridin-3-yl)pyrazolo[1,5-a]pyridin-3-yl)(piperidin-1-yl)methanone], for which the IC50 in assay [1] was not above 0.1 µM. In assay [2], the fold induction at 1 µM is more than 1.5. The corresponding values for `CN1Cc2ccc(-c3cccc4c(C(=O)N5CCC(F)CC5)cnn34)cc2C1=O` [Example 231, 6-(3-(4-fluoropiperidine-1-carbonyl)pyrazolo[1,5-a]pyridin-7-yl)-2-methylisoindolin-1-one] are not above 0.1 µM and more than 1.5. `O=C(c1cnn2c(-c3cc(Cl)cnc3F)cccc12)N1CCCCC1` [Example 283, (7-(5-chloro-2-fluoropyridin-3-yl)pyrazolo[1,5-a]pyridin-3-yl)(piperidin-1-yl)methanone] came in with an IC50 in assay [1] not above 0.1 µM. For the same molecule, in assay [2], the fold induction at 1 µM is less than 1.5. In the same order, the values of `CN1CCC(Nc2cccc3c(C(=O)N4CCCCC4)cnn23)CC1` [Example 150, (7-((1-methylpiperidin-4-yl)amino)pyrazolo[1,5-a]pyridin-3-yl)(piperidin-1-yl)methanone] are 0.1 to 1 µM and less than 1.5. In the same order, the values of `Cc1ncc(-c2cc(-c3cccc4c(C(=O)N5CCCCC5)cnn34)cc(N3CCOCC3)n2)cn1` [Example 377, (7-(2-(2-methylpyrimidin-5-yl)-6-morpholinopyridin-4-yl)pyrazolo[1,5-a]pyridin-3-yl)(piperidin-1-yl)methanone] are not above 0.1 µM and more than 1.5. In the same order, the values of `O=C(c1cnn2c(-c3ccc(N4C5CCC4CC5)nc3)cccc12)N1CCCCC1` [Example 217] are not above 0.1 µM and more than 1.5. As for `O=C(c1cnn2c(-c3cc(-c4cncc(F)c4)nc(N4CCOCC4)c3)cccc12)N1CCCCC1` [Example 376, (7-(5'-fluoro-6-morpholino-[2,3'-bipyridin]-4-yl)pyrazolo[1,5-a]pyridin-3-yl)(piperidin-1-yl)methanone], in assay [1], the IC50 is not above 0.1 µM. The fold induction at 1 µM in assay [2] is more than 1.5.

Molecule `O=C1NCc2ccc(-c3cccc4c(C(=O)N5CCC(F)(F)CC5)cnn34)cc21` [Example 234, 6-(3-(4,4-difluoropiperidine-1-carbonyl)pyrazolo[1,5-a]pyridin-7-yl)isoindolin-1-one] yielded an IC50 in assay [1] not above 0.1 µM. Also, the fold induction at 1 µM in assay [2] is more than 1.5.

On to `O=C(Nc1ccc(-c2cccc3c(C(=O)N4CCCCC4)cnn23)cc1)C1CC1` [Example 100, N-(4-(3-(piperidine-1-carbonyl)pyrazolo[1,5-a]pyridin-7-yl)phenyl)cyclopropanecarboxamide], for which, in assay [1], the IC50 is not above 0.1 µM. Further, the fold induction at 1 µM in assay [2] was more than 1.5. In assay [1], `O=C(c1cnn2c(-c3ccc4c(=O)[nH]ncc4c3)cccc12)N1CCCCC1` [Example 233, 6-(3-(piperidine-1-carbonyl)pyrazolo[1,5-a]pyridin-7-yl)phthalazin-1(2H)-one] displayed an IC50 not above 0.1 µM. Besides, the fold induction at 1 µM in assay [2] was more than 1.5. In the same order, the values of `O=C(c1cnn2c(-c3ccc(Cl)nc3F)cccc12)N1CCCCC1` [Example 315, (7-(6-chloro-2-fluoropyridin-3-yl)pyrazolo[1,5-a]pyridin-3-yl)(piperidin-1-yl)methanone] are not above 0.1 µM and more than 1.5. `O=C(c1cnn2c(-c3cc(F)cc(-c4ncon4)c3)cccc12)N1CCCCC1` [Example 341, (7-(3-fluoro-5-(1,2,4-oxadiazol-3-yl)phenyl)pyrazolo[1,5-a]pyridin-3-yl)(piperidin-1-yl)methanone]: in assay [1], the IC50 was not above 0.1 µM. The fold induction at 1 µM in assay [2] was more than 1.5. The corresponding values for `COCCC(=O)Nc1ccc(-c2cccc3c(C(=O)N4CCCCC4)cnn23)cn1` [Example 103, 3-methoxy-N-(5-(3-(piperidine-1-carbonyl)pyrazolo[1,5-a]pyridin-7-yl)pyridin-2-yl)propanamide] are not above 0.1 µM and less than 1.5.

The molecule `O=C(Nc1ccc(-c2cccc3c(C(=O)N4CCCCC4)cnn23)cc1)c1cccnc1` [Example 101, N-(4-(3-(piperidine-1-carbonyl)pyrazolo[1,5-a]pyridin-7-yl)phenyl)nicotinamide] registered an IC50 in assay [1] not above 0.1 µM. The fold induction at 1 µM in assay [2] is more than 1.5. The corresponding values for `Cc1noc(C)c1-c1cc(-c2cccc3c(C(=O)N4CCCCC4)cnn23)cc(N2CCOC2=O)n1` [Example 368, 3-(6-(3,5-dimethylisoxazol-4-yl)-4-(3-(piperidine-1-carbonyl)pyrazolo[1,5-a]pyridin-7-yl)pyridin-2-yl)oxazolidin-2-one] are not above 0.1 µM and more than 1.5. In the same order, the values of `O=C(c1cnn2c(NCCc3ccncc3)cccc12)N1CCCCC1` [Example 149, piperidin-1-yl(7-((2-(pyridin-4-yl)ethyl)amino)pyrazolo[1,5-a]pyridin-3-yl)methanone] are not above 0.1 µM and more than 1.5.

As for `O=C(Nc1cccc(-c2cccc3c(C(=O)N4CCCCC4)cnn23)c1)C1CCCCC1` [Example 96, N-(3-(3-(piperidine-1-carbonyl)pyrazolo[1,5-a]pyridin-7-yl)phenyl)cyclohexanecarboxamide], in assay [1], the IC50 was not above 0.1 µM. Besides, the fold induction at 1 µM in assay [2] is less than 1.5. As to `O=C(c1n[nH]c2c(-c3cccc(Cl)c3)cccc12)N1CCCCC1` [Example 161, (7-(3-chlorophenyl)-1H-indazol-3-yl)(piperidin-1-yl)methanone], the IC50 in assay [1] is more than 1 µM. For the molecule `O=C(c1cc2nc(-c3coc4ccccc34)ccc2[nH]1)N1CCCCC1` [Example 188, (5-(benzofuran-3-yl)-1H-pyrrolo[3,2-b]pyridin-2-yl)(piperidin-1-yl)methanone], in assay [1], the IC50 fell in the range of 0.1 to 1 µM.

The molecule `O=C(c1cncc(-c2cccc3c(C(=O)N4CCCCC4)cnn23)c1)N1CC(F)(F)C1` [Example 44, (3,3-difluoroazetidin-1-yl)(5-(3-(piperidine-1-carbonyl)pyrazolo[1,5-a]pyridin-7-yl)pyridin-3-yl)methanone] showed an IC50 in assay [1] not above 0.1 µM. Molecule `O=C(c1cc2nc(-c3ccc(Cl)cc3)ccc2[nH]1)N1CCCCC1` [Example 180, (5-(4-chlorophenyl)-1H-pyrrolo[3,2-b]pyridin-2-yl)(piperidin-1-yl)methanone] gave an IC50 in assay [1] of 0.1 to 1 µM. On the same count and under the same terms, the same measure for `COc1ccc(-c2ccc3[nH]c(C(=O)N4CCCCC4)cc3n2)cc1` [Example 179, (5-(4-methoxyphenyl)-1H-pyrrolo[3,2-b]pyridin-2-yl)(piperidin-1-yl)methanone]: 0.1 to 1 µM; for `O=C(c1cnn2c(-c3ccc4[nH]ccc4c3)cccc12)N1CCCCC1` [Example 126, (7-(1H-indol-5-yl)pyrazolo[1,5-a]pyridin-3-yl)(piperidin-1-yl)methanone]: not above 0.1 µM; for `COc1ccc(-c2ccc3[nH]c(C(=O)N4CCCCC4)cc3n2)cc1OC` [Example 181, (5-(3,4-dimethoxyphenyl)-1H-pyrrolo[3,2-b]pyridin-2-yl)(piperidin-1-yl)methanone]: 0.1 to 1 µM. On the same count and under the same terms, to `O=C(c1cnn2c(-c3ccc4cn[nH]c4c3)cccc12)N1CCCCC1` [Example 125, (7-(1H-indazol-6-yl)pyrazolo[1,5-a]pyridin-3-yl)(piperidin-1-yl)methanone] belongs not above 0.1 µM.

These data come from patent EP4653437A2 (Innovo Therapeutics Inc., priority 2023, dated 2024).
